From patent publication US8048862B2, “Macrocyclic inhibitors of hepatitis C virus replication” (priority 2008, dated 2011)
Like-named read-outs stand apart in the source and are kept apart here.

Key:
NS3/NS4 complexes = NS3/NS4 complexes (Hepatitis C virus genotype 1a, UniProt P27958); assay: NS3/NS4 inhibition activity (IC50); type: biochemical
Text: NS3-NS4 inhibition activity can be determined using known assay methods. For example, NS3/NS4 complexes may be formed and inhibitory concentrations of test compounds determined as described in U.S. Patent Application Publication Number 2007/0054842 paragraph numbers 1497-1509, which is incorporated herein by reference in its entirety. Similarly, hepatitis C replicon EC50 may be determined using known assay methods such as described in U.S. Patent Application Publication Number 2007/0054842 paragraph numbers 1510-1515. Assays may be conducted at ambient temperature (23° C.) in assay buffer containing 50 mM Tris-HCl, pH 7.5, 15% glycerol, 0.6 mM Lauryldimethylamine Oxide (LDAO), 25 μM NS4A peptide, and 10 mM Dithiothreitol (DTT).

hepatitis C replicon = hepatitis C replicon EC50; type: cell-based; settings: Hepatitis C virus; Table 2; hepatitis C replicon; read-out: EC50
Text: NS3-NS4 inhibition activity can be determined using known assay methods.

Chain of NS3/NS4 complexes (P27958 1027-1657): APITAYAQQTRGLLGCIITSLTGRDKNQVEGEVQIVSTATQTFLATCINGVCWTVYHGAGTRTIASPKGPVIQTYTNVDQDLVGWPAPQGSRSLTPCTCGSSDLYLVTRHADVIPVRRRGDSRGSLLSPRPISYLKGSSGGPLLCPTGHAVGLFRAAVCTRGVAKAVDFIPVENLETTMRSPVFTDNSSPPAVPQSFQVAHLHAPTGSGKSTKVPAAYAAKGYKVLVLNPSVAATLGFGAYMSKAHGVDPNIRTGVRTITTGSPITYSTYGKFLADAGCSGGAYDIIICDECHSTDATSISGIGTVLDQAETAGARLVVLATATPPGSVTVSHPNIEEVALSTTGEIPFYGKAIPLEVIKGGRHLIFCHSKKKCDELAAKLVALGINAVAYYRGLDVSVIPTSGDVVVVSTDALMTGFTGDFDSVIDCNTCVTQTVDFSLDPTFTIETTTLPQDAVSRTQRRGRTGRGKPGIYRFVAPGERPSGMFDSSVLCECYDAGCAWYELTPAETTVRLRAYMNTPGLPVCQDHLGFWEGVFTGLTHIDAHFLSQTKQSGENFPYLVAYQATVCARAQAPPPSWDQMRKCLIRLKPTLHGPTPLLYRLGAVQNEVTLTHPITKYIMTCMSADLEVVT
Chain of NS3/NS4 complexes (P27958 1658-1711): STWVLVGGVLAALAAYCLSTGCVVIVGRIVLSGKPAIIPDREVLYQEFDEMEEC

Structure (SMILES)	IC50 (NS3/NS4 complexes; Table 2, read-out: IC50) [nM]	also measured
O=C1N[C@]2(C(=O)O)C[C@H]2/C=C\CCCCC[C@H](Nc2ccccc2)C(=O)N2C[C@H](Oc3nc4ccccc4s3)C[C@@H]12 [Compound 101]	75 to 500	EC50 (hepatitis C replicon): > 500 nM
O=C1N[C@]2(C(=O)O)C[C@H]2/C=C\CCCCC[C@H](Nc2cccc(F)c2)C(=O)N2C[C@H](Oc3nc4ccccc4s3)C[C@@H]12 [Compound 123]	75 to 500	–
COc1cccc(N[C@H]2CCCCC/C=C\[C@@H]3C[C@@]3(C(=O)O)NC(=O)[C@@H]3C[C@@H](Oc4nc5ccccc5s4)CN3C2=O)c1 [Compound 132]	75 to 500	–
O=C1N[C@]2(C(=O)O)C[C@H]2/C=C\CCCCC[C@H](Nc2cc(F)cc(C(F)(F)F)c2)C(=O)N2C[C@H](Oc3nc4ccccc4s3)C[C@@H]12 [Compound 321]	10 to 75	–
O=C1N[C@]2(C(=O)O)C[C@H]2/C=C\CCCCC[C@H](Nc2cc(F)cc(C(F)(F)F)c2)C(=O)N2C[C@H](Oc3nc4ccc(Cl)cc4s3)C[C@@H]12 [Compound 322]	10 to 75	–
Cc1ccc2nc(O[C@@H]3C[C@H]4C(=O)N[C@]5(C(=O)O)C[C@H]5/C=C\CCCCC[C@H](Nc5cc(F)cc(C(F)(F)F)c5)C(=O)N4C3)sc2c1 [Compound 323]	< 10	–
O=C1N[C@]2(C(=O)O)C[C@H]2/C=C\CCCCC[C@H](Nc2cc(F)cc(F)c2)C(=O)N2C[C@H](Oc3nc4ccccc4s3)C[C@@H]12 [Compound 324]	10 to 75	–
O=C1N[C@]2(C(=O)O)C[C@H]2/C=C\CCCCC[C@H](Nc2ccc3ccccc3c2)C(=O)N2C[C@H](Oc3nc4ccccc4s3)C[C@@H]12 [Compound 327]	10 to 75	–
O=C1N[C@]2(C(=O)O)C[C@H]2/C=C\CCCCC[C@H](Nc2ccc(C(F)(F)F)cc2)C(=O)N2C[C@H](Oc3nc4ccccc4s3)C[C@@H]12 [Compound 329]	75 to 500	–
O=C1N[C@]2(C(=O)O)C[C@H]2/C=C\CCCCC[C@H](Nc2ccc(F)c(F)c2)C(=O)N2C[C@H](Oc3nc4ccccc4s3)C[C@@H]12 [Compound 343]	75 to 500	–
O=C1N[C@]2(C(=O)O)C[C@H]2/C=C\CCCCC[C@H](Nc2cc(Cl)cc(Cl)c2)C(=O)N2C[C@H](Oc3nc4ccccc4s3)C[C@@H]12 [Compound 344]	75 to 500	–
COc1ccc2c(O[C@@H]3C[C@H]4C(=O)N[C@]5(C(=O)NS(=O)(=O)C6(C)CC6)C[C@H]5/C=C\CCCCC[C@H](Nc5cc(F)cc(C(F)(F)F)c5)C(=O)N4C3)cc(-c3ccccc3)nc2c1 [Compound 357]	10 to 75	–
COc1ccc2c(O[C@@H]3C[C@H]4C(=O)N[C@]5(C(=O)O)C[C@H]5/C=C\CCCCC[C@H](Nc5cccc(F)c5)C(=O)N4C3)cc(-c3nc(C(C)C)cs3)nc2c1C [Compound 448]	< 10	–
COc1ccc2c(O[C@@H]3C[C@H]4C(=O)N[C@]5(C(=O)NS(=O)(=O)C6(C)CC6)C[C@H]5/C=C\CCCCC[C@H](Nc5cccc(C(N)=O)c5)C(=O)N4C3)cc(-c3nc(C(C)C)cs3)nc2c1C [Compound 483]	–	EC50 (hepatitis C replicon): < 10 nM
COc1ccc2c(O[C@@H]3C[C@H]4C(=O)N[C@]5(C(=O)NS(=O)(=O)C6(C)CC6)C[C@H]5/C=C\CCCCC[C@H](Nc5cccc(NS(C)(=O)=O)c5)C(=O)N4C3)cc(-c3nc(C(C)C)cs3)nc2c1C [Compound 484]	–	EC50 (hepatitis C replicon): 10 to 75 nM
COc1ccc2c(O[C@@H]3C[C@H]4C(=O)N[C@]5(C(=O)NS(=O)(=O)C6(C)CC6)C[C@H]5/C=C\CCCCC[C@H](Nc5ccc(NC(C)=O)cc5)C(=O)N4C3)cc(-c3nc(C(C)C)cs3)nc2c1C [Compound 485]	–	EC50 (hepatitis C replicon): 10 to 75 nM
CC(C)(C)OC(=O)N[C@H]1CCCCC/C=C\[C@@H]2C[C@@]2(C(=O)NOc2ccccc2)NC(=O)[C@@H]2C[C@@H](Oc3nc4ccccc4s3)CN2C1=O [Compound 1020]	–	IC50 (NS3/NS4 complexes; Table 3, read-out: IC50): 10 to 100 nM
CC(C)(C)OC(=O)N[C@H]1CCCCC/C=C\[C@@H]2C[C@@]2(C(=O)NOc2ccccc2)NC(=O)[C@@H]2C[C@@H](Oc3nc4ccc(F)cc4s3)CN2C1=O [Compound 1021]	–	IC50 (NS3/NS4 complexes; Table 3, read-out: IC50): 10 to 100 nM
CC(C)(C)OC(=O)N[C@H]1CCCCC/C=C\[C@@H]2C[C@@]2(C(=O)NOc2ccccc2)NC(=O)[C@@H]2C[C@@H](Oc3nc4ccc(Br)cc4s3)CN2C1=O [Compound 1022]	–	IC50 (NS3/NS4 complexes; Table 3, read-out: IC50): > 100 nM
CC(C)(C)OC(=O)N[C@H]1CCCCC/C=C\[C@@H]2C[C@@]2(C(=O)NOc2ccccc2)NC(=O)[C@@H]2C[C@@H](Oc3nc4ccc(Cl)cc4s3)CN2C1=O [Compound 1023]	–	IC50 (NS3/NS4 complexes; Table 3, read-out: IC50): > 100 nM
Cc1ccc2nc(O[C@@H]3C[C@H]4C(=O)N[C@]5(C(=O)NOc6ccccc6)C[C@H]5/C=C\CCCCC[C@H](NC(=O)OC(C)(C)C)C(=O)N4C3)sc2c1 [Compound 1024]	–	IC50 (NS3/NS4 complexes; Table 3, read-out: IC50): > 100 nM
COc1ccc2nc(O[C@@H]3C[C@H]4C(=O)N[C@]5(C(=O)NOc6ccccc6)C[C@H]5/C=C\CCCCC[C@H](NC(=O)OC(C)(C)C)C(=O)N4C3)sc2c1 [Compound 1025]	–	IC50 (NS3/NS4 complexes; Table 3, read-out: IC50): > 100 nM
